Legend:
[1] = molecular target: JAK1 (recombinant purified GST-tagged catalytic domain) (Homo sapiens (Human), UniProt P23458); assay: biochemical;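 also: biochemical assay with HTRF read-out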
[2] = molecular target: JAK2 (recombinant purified GST-tagged catalytic domain) (Homo sapiens (Human), UniProt O60674); assay: biochemical;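 also: biochemical JAK kinase assay with HTRF detection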
Sequence of JAK2 (recombinant purified GST-tagged catalytic domain) (O60674 849-1124): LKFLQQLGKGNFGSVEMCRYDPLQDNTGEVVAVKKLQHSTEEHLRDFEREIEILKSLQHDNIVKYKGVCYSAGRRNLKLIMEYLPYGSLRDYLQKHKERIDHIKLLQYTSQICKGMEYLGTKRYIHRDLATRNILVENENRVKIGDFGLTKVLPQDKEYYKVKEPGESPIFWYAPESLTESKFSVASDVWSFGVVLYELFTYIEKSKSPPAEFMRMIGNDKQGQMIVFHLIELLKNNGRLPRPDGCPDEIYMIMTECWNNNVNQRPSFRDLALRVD

Sequence of JAK1 (recombinant purified GST-tagged catalytic domain) (P23458 875-1153): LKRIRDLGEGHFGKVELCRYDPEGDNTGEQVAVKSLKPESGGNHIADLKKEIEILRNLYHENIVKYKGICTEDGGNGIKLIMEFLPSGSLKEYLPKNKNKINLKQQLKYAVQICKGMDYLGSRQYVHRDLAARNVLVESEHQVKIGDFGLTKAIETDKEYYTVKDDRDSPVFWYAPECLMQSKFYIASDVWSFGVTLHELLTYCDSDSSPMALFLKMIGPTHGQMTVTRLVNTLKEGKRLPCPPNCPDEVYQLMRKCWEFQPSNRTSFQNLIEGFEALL

| SMILES | IC50 [1] | IC50 [2] |
| --- | --- | --- |
| CC1(N[C@H]2CCC(n3cc(C(N)=O)c(Nc4ccccc4)n3)[C@@H](C#N)C2)CC1 (single isomer, unassigned) [Example 28-216, 1-{(1S,2S,4S or 1R,2R,4R)-2-cyano-4-[(1-methylcyclopropyl)amino]cyclo-hexyl}-3-(phenylamino)-1H-pyrazole-4-carboxamide] | 2 nM | 24 nM |
| CN(CC1(C)COC1)[C@H]1CCC(n2cc(C(N)=O)c(Nc3ccc(Cl)cc3)n2)[C@@H](C#N)C1 (single isomer, unassigned) [Example 28-219, 3-[(4-chlorophenyl)amino]-1-[(1S,2S,4S or 1R,2R,4R)-2-cyano-4-{methyl[(3-methyloxetan-3-yl)methyl]amino}cyclohexyl]-1H-pyrazole-4-carboxamide] | 1 nM | 11 nM |
| CC(C)(O)CN[C@H]1CCC(n2cc(C(N)=O)c(Nc3ccc(Cl)cc3)n2)[C@@H](C#N)C1 (single isomer, unassigned) [Example 28-221, 3-[(4-chlorophenyl)amino]-1-{(1S,2S,4S or 1R,2R,4R)-2-cyano-4-[(2-hydroxy-2-methylpropyl)amino]cyclo-hexyl}-1H-pyrazole-4-carboxamide] | 2 nM | 42 nM |
| N#C[C@H]1C[C@@H](NC2(CO)CC2)CCC1n1cc(C(N)=O)c(Nc2ccc(Cl)cc2)n1 (single isomer, unassigned) [Example 28-223, 3-[(4-chlorophenyl)amino]-1-[(1S,2S,4S or 1R,2R,4R)-2-cyano-4-{[1-(hydroxymethyl)cyclopropyl]a-mino}cyclohexyl]-1H-pyrazole-4-carboxamide] | 2 nM | 14 nM |
| N#C[C@H]1C[C@@H](NC2(C(F)(F)F)CC2)CC[C@@H]1n1cc(C(N)=O)c(Nc2ccc(Cl)cc2)n1 (single isomer, unassigned) [Example 28-226, 3-[(4-chlorophenyl)amino]-1-[(1S,2S,4S or 1R,2R,4R)-2-cyano-4-{[1-(trifluoro-methyl)cyclopropyl]a-mino}cyclohexyl]-1H-pyrazole-4-carboxamide] | 5 nM | 36 nM |
| N#C[C@H]1C[C@H](NC2(C(F)(F)F)CC2)CC[C@@H]1n1cc(C(N)=O)c(Nc2ccc(Cl)cc2)n1 (single isomer, unassigned) [Example 28-227, 3-[(4-chlorophenyl)amino]-1-[(1S,2S,4R or 1R,2R,4S)-2-cyano-4-{[1-(trifluoro-methyl)cyclopropyl]a-mino}cyclohexyl]-1H-pyrazole-4-carboxamide] | 27 nM | 186 nM |
| COC(C)(C)CN[C@H]1CCC(n2cc(C(N)=O)c(Nc3ccc(Cl)cc3)n2)[C@@H](C#N)C1 (single isomer, unassigned) [Example 28-228, 3-[(4-chlorophenyl)amino]-1-{(1S,2S,4S or 1R,2R,4R)-2-cyano-4-[(2-methoxy-2-methylpropyl)amino]cyclo-hexyl}-1H-pyrazole-4-carboxamide] | 2 nM | 48 nM |
| CC1(N[C@H]2CCC(n3cc(C(N)=O)c(Nc4ccccc4)n3)[C@@H](C#N)C2)COC1 (single isomer, unassigned) [Example 28-230, 1-{(1S,2S,4S or 1R,2R,4R)-2-cyano-4-[(3-methyloxetan-3-yl)amino]cyclohexyl}-3-(phenylamino)-1H-pyrazole-4-carboxamide] | 4 nM | 24 nM |
| COCCN[C@H]1CCC(n2cc(C(N)=O)c(Nc3ccc(Cl)cc3)n2)[C@@H](C#N)C1 (single isomer, unassigned) [Example 28-236, 3-[(4-chlorophenyl)amino]-1-{(1S,2S,4S or 1R,2R,4R)-2-cyano-4-[(2-methoxyethyl)amino]cyclo-hexyl}-1H-pyrazole-4-carboxamide] | 0.9 nM | 23 nM |
| COCCN(C)[C@H]1CCC(n2cc(C(N)=O)c(Nc3ccc(Cl)cc3)n2)[C@@H](C#N)C1 (single isomer, unassigned) [Example 28-239, 3-[(4-chlorophenyl)amino]-1-{(1S,2S,4S or 1R,2R,4R)-2-cyano-4-[(2-methoxy-ethyl)(methyl)amino]cyclo-hexyl}-1H-pyrazole-4-carboxamide] | 2 nM | 20 nM |
| COCC(C)N(C)[C@H]1CCC(n2cc(C(N)=O)c(Nc3ccc(Cl)cc3)n2)[C@@H](C#N)C1 (single isomer, unassigned) [Example 28-240, 3-[(4-chlorophenyl)amino]-1-[(1S,2S,4S or 1R,2R,4R)-2-cyano-4-{[(1S or 1R)-2-methoxy-1-methylethyl](methyl)ami-no}cyclohexyl]-1H-pyrazole-4-carboxamide] | 2 nM | 27 nM |
| CN(C1COC1)[C@H]1CC[C@@H](n2cc(C(N)=O)c(Nc3ccc(C(F)(F)F)cc3)n2)[C@H](C#N)C1 (single isomer, unassigned) [Example 30-1, 1-{(1R,2R,4S or 1S,2S,4R)-2-Cyano-4-[methyl(oxetan-3-yl)amino]cyclohexyl}-3-{[4-(trifluoromethyl)phenyl]amino}-1H-pyrazole-4-carboxamide] | 9 nM | 106 nM |
| N#C[C@@H]1C[C@@H](NC2CC3(CCCC3)C2)CC[C@H]1n1cc(C(N)=O)c(Nc2ccc(C(F)(F)F)cc2)n1 (single isomer, unassigned) [Example 30-5, 1-[(1R,2R,4S or 1S,2S,4R)-2-cyano-4-(spiro[3.4]oct-2-ylamino)cyclohexyl]-3-{[4-(trifluoromethyl)phenyl]amino}-1H-pyrazole-4-carboxamide] | 21 nM | 665 nM |
| CN(C1CCC1)[C@H]1CC[C@@H](n2cc(C(N)=O)c(Nc3ccc(C(F)(F)F)cc3)n2)[C@H](C#N)C1 (single isomer, unassigned) [Example 30-8, l-{(1R,2R,4S or 1S,2S,4R)-2-cyano-4-[cyclo-butyl(methyl)amino]cyclohexyl}-3-{[4-(trifluoro-methyl)phenyl]amino}-1H-pyrazole-4-carboxamide] | 6 nM | 240 nM |
| N#C[C@H]1C[C@H](NC2CCC2)CC[C@@H]1n1cc(C(N)=O)c(Nc2ccc(C(F)(F)F)cc2)n1 (single isomer, unassigned) [Example 30-14, 1-[(1S,2S,4R or 1R,2R,4S)-2-cyano-4-(cyclobutylamino)cyclohexyl]-3-{[4-(trifluoro-methyl)phenyl]amino}-1H-pyrazole-4-carboxamide] | 51 nM | 1050 nM |
| N#C[C@H]1C[C@H](N(CC2CC2)CC2CC2)CC[C@@H]1n1cc(C(N)=O)c(Nc2ccc(C(F)(F)F)cc2)n1 (single isomer, unassigned) [Example 30-15, l-{(1S,2S,4R or 1R,2R,4S)-4-[bis(cyclopropylmethyl)amino]-2-cyanocyclohexyl}-3-{[4-(trifluoromethyl)phenyl]amino}-1H-pyrazole-4-carboxamide] | 260 nM | > 1500 nM |
| N#C[C@@H]1C[C@@H](NCC2CCC2)CC[C@H]1n1cc(C(N)=O)c(Nc2ccc(C(F)(F)F)cc2)n1 (single isomer, unassigned) [Example 30-16, 1-{(1R,2R,4S or 1S,2S,4R)-2-cyano-4-[(cyclobutyl-methyl)amino]cyclohexyl}-3-{[4-(trifluoro-methyl)phenyl]amino}-1H-pyrazole-4-carboxamide] | 2 nM | 242 nM |
| N#C[C@@H]1C[C@@H](NC2COC2)CC[C@H]1n1cc(C(N)=O)c(Nc2ccc(C(F)(F)F)cc2)n1 (single isomer, unassigned) [Example 30-17, 1-[(1R,2R,4S or 1S,2S,4R)-2-cyano-4-(oxetan-3-ylamino)cyclohexyl]-3-{[4-(trifluoromethyl)phenyl]amino}-1H-pyrazole-4-carboxamide] | 0.85 nM | 17 nM |
| N#C[C@@H]1C[C@@H](NC2CCC2)CC[C@H]1n1cc(C(N)=O)c(Nc2ccc(C(F)(F)F)cc2)n1 (single isomer, unassigned) [Example 30-18, 1-[(1R,2R,4S or 1S,2S,4R)-2-cyano-4-(cyclobutyl-amino)cyclohexyl]-3-{[4-(trifluoromethyl)phenyl]amino}-1H-pyrazole-4-carboxamide] | 2 nM | 136 nM |
| C[N+]1([C@H]2CC[C@H](n3cc(C(N)=O)c(Nc4ccc(C(F)(F)F)cc4)n3)[C@@H](C#N)C2)CCC1 (single isomer, unassigned) [Example 31-1, 1-((1S,3S,4S or 1R,3R,4R)-4-(4-carbamoyl-3-((4-(trifluoromethyl)phenyl)amino)-1H-pyrazol-1-yl)-3-cyanocyclohexyl)-1-methylazetidin-1-ium 2,2,2-trifluoroacetate] | 0.3 nM | 33 nM |
| N#C[C@H]1C[C@@](O)(C2CC2)CC[C@@H]1n1cc(C(N)=O)c(Nc2ccc(Cl)c(F)c2)n1 (single isomer, unassigned) [Example 32-1, 3-[(4-Chloro-3-fluorophenyl)amino]-1-[(1S,2S,4S or 1R,2R,4R)-2-cyano-4-cyclopropyl-4-hydroxycyclohexyl]-1H-pyrazole-4-carboxamide] | 13 nM | 59 nM |
| N#C[C@H]1C[C@@H](O)CC[C@@H]1n1cc(C(N)=O)c(Nc2ccc(OC(F)(F)F)cc2)n1 (single isomer, unassigned) [Example 33-1, 1-((1S,2S,4S or 1R,2R,4R)-2-Cyano-4-hydroxycyclohexyl)-3-((4-(trifluoromethoxy)phenyl)amino)-1H-pyrazole-4-carboxamide] | 0.5 nM | 5 nM |
| N#C[C@H]1C[C@@H](O)CC[C@@H]1n1cc(C(N)=O)c(Nc2ccc(C(F)(F)F)cc2)n1 (single isomer, unassigned) [Example 33-4, 1-[(1S,2S,4S or 1R,2R,4R)-2-cyano-4-hydroxycyclohexyl]-3-{[4-(trifluoromethyl)phenyl]amino}-1H-pyrazole-4-carboxamide] | 5 nM | 90 nM |
| N#Cc1ccc(Nc2nn([C@H]3CC[C@H](O)C[C@@H]3C#N)cc2C(N)=O)cc1 (single isomer, unassigned) [Example 33-6, 1-[(1S,2S,4S or 1R,2R,4R)-2-cyano-4-hydroxycyclohexyl]-3-[(4-cyanophenyl)amino]-1H-pyrazole-4-carboxamide] | 0.5 nM | 3 nM |
